Assay results from patent US20190209697A1, “CELLS LABELLED WITH LIPID CONJUGATES AND METHODS OF USE THEREOF” (priority 2015, published 2019).

Test system: Jurkat cells
Assay: Efficiency of incorporation of AF488-capped glycopolymers into cell membranes, flow cytometry
Assay type: cell-based
Settings: 10 μM AF488-capped polymer, 1 h at RT
Procedure: Using AF488 labeled polymers, the efficiency with which each glycopolymer was incorporated into cell membranes was measures. Jurkat cells (10^7/mL in serum-free media) were incubated for 1 h at room temperature with 10 μM lipid-conjugated glycopolymer, washed, and then measured for fluorescence by flow cytometry (FIG. 4, panel A).
Jurkat cells were incubated with 10 μM of AF488-capped polymer for 1 h at RT, washed and their fluorescence measured by flow cytometry. […] For FIG. 4-FIG. 5, shown are mean minus background+/−standard deviation of three replicate experiments.
Jurkat cells (10^7/mL) were incubated with AF488-polymers at the given concentration or PBS in serum free media for 1 hr at RT. The cells were then washed, and their fluorescence measured by flow cytometry. Shown are mean and standard deviation of three replicate experiments minus background as measured by cells incubated with PBS instead of polymer.

In the case of DMPC, the “level of incorporation into cell membranes” value was “highest levels of incorporation”.
